This is an account of results in US12331068B2, “Compositions and methods for inhibiting CD73” (Peloton Therapeutics, Inc., priority 2018, dated 2025).

In one experiment the target is T1, Human CD73 (Homo sapiens, UniProt P21589).
T1 construct: purchased R&D Systems; host or cells: CHO cells
T1 sequence (P21589 27-549): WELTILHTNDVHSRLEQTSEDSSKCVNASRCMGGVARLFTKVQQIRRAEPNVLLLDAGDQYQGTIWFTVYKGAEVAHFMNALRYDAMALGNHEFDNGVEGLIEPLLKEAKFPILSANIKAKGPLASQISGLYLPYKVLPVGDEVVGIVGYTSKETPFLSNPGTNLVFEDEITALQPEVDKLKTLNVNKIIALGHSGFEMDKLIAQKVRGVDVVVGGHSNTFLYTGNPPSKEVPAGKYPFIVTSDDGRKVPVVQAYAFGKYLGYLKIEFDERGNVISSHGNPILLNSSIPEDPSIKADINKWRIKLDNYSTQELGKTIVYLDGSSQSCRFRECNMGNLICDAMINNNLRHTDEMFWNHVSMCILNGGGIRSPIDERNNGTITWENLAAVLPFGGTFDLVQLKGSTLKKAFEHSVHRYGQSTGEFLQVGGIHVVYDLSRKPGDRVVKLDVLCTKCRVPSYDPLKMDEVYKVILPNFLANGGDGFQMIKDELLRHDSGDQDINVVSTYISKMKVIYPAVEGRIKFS
As to the kind of experiment: CD73 Enzyme Assay (EnzChek PNP/MESG kinetic readout of AMP hydrolysis). Format: biochemical. The conditions noted are these: 0.25 nM hCD73, 25 μM AMP; read-out: CD73 Enzyme Assay IC50. The procedure, abridged:
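Compounds tested as 15-point, 3-fold dilution series (300 μM to 0.0002 μM) in DMSO. Kinetic absorbance at 360 nm read every minute for 10–20 min, initial velocity taken from the linear portion.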

Experiment [1] deals with T2, CD73 on U138 human neuroglioma cells (Homo sapiens, UniProt P21589).
T2 construct: U138 cells were obtained from ATCC and cultured in DMEM with 10% FBS; host or cells: U138 human neuroglioma cells
T2 sequence (P21589 27-549): T1 sequence (P21589 27-549)
As to the kind of experiment: CD73 Cell-Based Assay (inorganic phosphate from AMP, malachite green). Conditions: AMP substrate, 2 hours at 37° C., read-out: CD73 Cell-Based assay IC50. The procedure, abridged:
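U138 cells, seeded the day before at 2500 per well, were washed and given AMP substrate (200 μM in the added mixture, before dilution into the buffer) together with compound. After 2 h at 37 °C in 5% CO2, inorganic phosphate in the supernatant was measured with malachite green.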

Molecules are shown by their SMILES. pIC50: −log10 of the molar value.

The pIC50 is −log10 of the IC50, conventionally taken in molar units. With `N#Cc1c(Cl)nc2c(ncn2[C@@H]2O[C@H](COP(=O)(O)CP(=O)(O)O)[C@@H](O)[C@@H]2F)c1N1CCC(F)(F)C1` [Compound 97], the negative-log IC50 (pIC50) (at Human CD73; in experiment [1]) was above 8.00 throughout.

On to `N#Cc1nc2c(ccn2[C@@H]2O[C@H](CS(=O)(=O)CP(=O)(O)O)[C@@H](O)[C@H]2O)c(NC2CCC(F)(F)CC2)c1Cl` [Compound 137], for which the negative logarithm of the IC50 (pIC50) (at Human CD73; in experiment [1]) was above 8.00 in each case.

For `N#Cc1c(Cl)nc2c(ccn2[C@@H]2O[C@H](CS(=O)(=O)CP(=O)(O)O)[C@@H](O)[C@H]2O)c1N1CC2CC2C1` (stereo partly drawn) [Compound 22], the negative-log IC50 (pIC50) (on Human CD73; in experiment [1]) was above 8.00 in each case.

`N#Cc1c(Cl)nc2c(ccn2[C@@H]2O[C@H](CS(=O)(=O)CP(=O)(O)O)[C@@H](O)[C@@H]2F)c1N` [Compound 173]: the pIC50 on Human CD73 was 7.00 to 8.00; in experiment [1] it was below 7.00.

For `N#Cc1nc2c(ccn2[C@@H]2O[C@H](CS(=O)(=O)CP(=O)(O)O)[C@@H](O)[C@H]2O)c(NC2CCCC2)c1Cl` [Compound 210], the negative logarithm of the IC50 (pIC50) (on Human CD73; in experiment [1]) was above 8.00 throughout.

On to `C[C@@H](Nc1c(C#N)c(Cl)nc2c1ncn2[C@@H]1O[C@H](COP(=O)(O)CP(=O)(O)O)[C@@H](O)[C@@H]1F)c1ccc(F)cc1` [Compound 250], for which the negative-log IC50 (pIC50) (on Human CD73; in experiment [1]) was above 8.00 throughout.
